The values that follow come from BindingDB's records for doi:10.1016/0960-894X(96)00231-4 (1996).

Assay [1] is described as follows: Binding affinity at Dopamine D3 receptors in rat striatum by [3H]-spiperone displacement.
For assay [2], the target named is D(2) dopamine receptor (Rattus norvegicus) (UniProt P61169). Kind of assay: Binding affinity at Dopamine D2 receptors in rat striatum by [3H]spiperone displacement.
The nature of assay [3]: Stimulation of mitogenesis in Dopamine receptor D3 transfected CHO p-5 cells.

SMILES strings stand for the structures.

D(2) dopamine receptor (Rattus norvegicus), sequence (P61169 whole entry, looked up): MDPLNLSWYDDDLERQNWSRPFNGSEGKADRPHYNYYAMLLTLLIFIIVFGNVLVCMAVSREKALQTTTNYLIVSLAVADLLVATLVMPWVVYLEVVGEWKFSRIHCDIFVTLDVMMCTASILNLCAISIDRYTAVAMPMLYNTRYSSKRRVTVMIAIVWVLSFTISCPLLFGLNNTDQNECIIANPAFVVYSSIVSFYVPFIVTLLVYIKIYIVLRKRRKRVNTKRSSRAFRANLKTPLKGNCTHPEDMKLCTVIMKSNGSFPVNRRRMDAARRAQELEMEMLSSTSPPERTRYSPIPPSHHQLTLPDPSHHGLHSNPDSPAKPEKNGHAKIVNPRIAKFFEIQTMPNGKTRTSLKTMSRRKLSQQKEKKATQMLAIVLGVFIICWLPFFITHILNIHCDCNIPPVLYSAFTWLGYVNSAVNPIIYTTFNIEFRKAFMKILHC

As to `COc1c(C(=O)NCCN2CCN(c3ccccc3)CC2)ccc2ccccc12` [1-Methoxy-naphthalene-2-carboxylic acid [2-(4-phenyl-piperazin-1-yl)-ethyl]-amide], the results for the Ki in assay [1] and in assay [2] were 0.27 µM and 7 µM, respectively.
On the same counts, the results for `CCOc1c(C(=O)NCCN2CCN(c3ccccc3)CC2)cc(Br)c2ccccc12` [4-Bromo-1-ethoxy-naphthalene-2-carboxylic acid [2-(4-phenyl-piperazin-1-yl)-ethyl]-amide] are 0.267 µM and greater than 10 µM.
As to `O=C(NCCN1CCN(c2ccccc2)CC1)c1cc(Br)c2ccccc2c1O` [4-Bromo-1-hydroxy-naphthalene-2-carboxylic acid [2-(4-phenyl-piperazin-1-yl)-ethyl]-amide], the Ki in assay [1] and in assay [2] was greater than 10 µM in each case.
With `COc1c(C(=O)NCCN2CCN(c3cccc(C)c3)CC2)cc(Br)c2ccccc12` [4-Bromo-1-methoxy-naphthalene-2-carboxylic acid [2-(4-m-tolyl-piperazin-1-yl)-ethyl]-amide], the results for the Ki in assay [1] and in assay [2] were 0.339 µM and 1.21 µM, respectively.
For `COc1c(C(=O)NCCN2CCN(c3ccccc3C)CC2)cc(Br)c2ccccc12` [4-Bromo-1-methoxy-naphthalene-2-carboxylic acid [2-(4-o-tolyl-piperazin-1-yl)-ethyl]-amide], the figures for the Ki in assay [1] and in assay [2] were 0.066 µM and 0.484 µM, respectively. This molecule registered an EC50 in assay [3] greater than 1 µM.
As to `COc1c(C(=O)NCCN2CCN(c3ccc(C)cc3)CC2)cc(Br)c2ccccc12` [4-Bromo-1-methoxy-naphthalene-2-carboxylic acid [2-(4-p-tolyl-piperazin-1-yl)-ethyl]-amide], the Ki was 0.26 µM in assay [1] and 0.996 µM in assay [2].
The corresponding values for `COc1c(C(=O)NCCN2CCN(c3ccccc3)CC2)cc(Br)c2ccccc12` [4-Bromo-1-methoxy-naphthalene-2-carboxylic acid [2-(4-phenyl-piperazin-1-yl)-ethyl]-amide] are 0.024 µM and 1.89 µM.
`COc1c(C(=O)NCCN2CCN(c3cccc(C)c3C)CC2)cc(Br)c2ccccc12` [4-Bromo-1-methoxy-naphthalene-2-carboxylic acid {2-[4-(2,3-dimethyl-phenyl)-piperazin-1-yl]-ethyl}-amide] yielded a Ki in assay [2] of 1.17 µM.
With `COc1c(C(=O)NCCN2CCN(c3ccccc3Cl)CC2)cc(Br)c2ccccc12` [4-Bromo-1-methoxy-naphthalene-2-carboxylic acid {2-[4-(2-chloro-phenyl)-piperazin-1-yl]-ethyl}-amide], the Ki in assay [1] is 0.039 µM; in assay [2], 0.517 µM. This molecule also came in with an EC50 in assay [3] of 0.083 µM.
Regarding `COc1ccccc1N1CCN(CCNC(=O)c2cc(Br)c3ccccc3c2OC)CC1` [4-Bromo-1-methoxy-naphthalene-2-carboxylic acid {2-[4-(2-methoxy-phenyl)-piperazin-1-yl]-ethyl}-amide], the Ki turned out to be 0.076 µM in assay [1] and 0.303 µM in assay [2].
As to `COc1c(C(=O)NCCN2CCN(c3ccccc3[N+](=O)[O-])CC2)cc(Br)c2ccccc12` [4-Bromo-1-methoxy-naphthalene-2-carboxylic acid {2-[4-(2-nitro-phenyl)-piperazin-1-yl]-ethyl}-amide], the inhibition constant (Ki) came to 0.024 µM in assay [1] and 0.151 µM in assay [2].
In assay [2], `COc1c(C(=O)NCCN2CCN(c3cccc(Cl)c3)CC2)cc(Br)c2ccccc12` [4-Bromo-1-methoxy-naphthalene-2-carboxylic acid {2-[4-(3-chloro-phenyl)-piperazin-1-yl]-ethyl}-amide] displayed a Ki of 0.703 µM. In addition, the EC50 in assay [3] turned out to be 0.028 µM.
Take `COc1cccc(N2CCN(CCNC(=O)c3cc(Br)c4ccccc4c3OC)CC2)c1` [4-Bromo-1-methoxy-naphthalene-2-carboxylic acid {2-[4-(3-methoxy-phenyl)-piperazin-1-yl]-ethyl}-amide]: the Ki in assay [1] was 0.652 µM; in assay [2], 1.29 µM.
On the same counts, the results for `COc1c(C(=O)NCCN2CCN(c3cccc([N+](=O)[O-])c3)CC2)cc(Br)c2ccccc12` [4-Bromo-1-methoxy-naphthalene-2-carboxylic acid {2-[4-(3-nitro-phenyl)-piperazin-1-yl]-ethyl}-amide] are 0.652 µM and 1.29 µM.
In the case of `COc1c(C(=O)NCCN2CCN(c3ccc(Cl)cc3)CC2)cc(Br)c2ccccc12` [4-Bromo-1-methoxy-naphthalene-2-carboxylic acid {2-[4-(4-chloro-phenyl)-piperazin-1-yl]-ethyl}-amide], the affinity in assay [1], expressed as Ki, was 0.132 µM.
For the molecule `COc1ccc(N2CCN(CCNC(=O)c3cc(Br)c4ccccc4c3OC)CC2)cc1` [4-Bromo-1-methoxy-naphthalene-2-carboxylic acid {2-[4-(4-methoxy-phenyl)-piperazin-1-yl]-ethyl}-amide], the Ki was 0.731 µM in assay [1] and 5.69 µM in assay [2].
As to `COc1c(C(=O)NCCN2CCN(c3ccc([N+](=O)[O-])cc3)CC2)cc(Br)c2ccccc12` [4-Bromo-1-methoxy-naphthalene-2-carboxylic acid {2-[4-(4-nitro-phenyl)-piperazin-1-yl]-ethyl}-amide], the Ki in assay [1] was 0.731 µM; in assay [2], 5.69 µM.
The corresponding values for `O=C(NCCN1CCN(c2ccccc2)CC1)c1cc(Br)c2ccccc2c1` [4-Bromo-naphthalene-2-carboxylic acid [2-(4-phenyl-piperazin-1-yl)-ethyl]-amide] are greater than 10 µM and greater than 10 µM.
On the same counts, the results for `COc1c(C(=O)NCCN2CCN(c3ccccc3)CC2)cc(Cl)c2ccccc12` [4-Chloro-1-methoxy-naphthalene-2-carboxylic acid [2-(4-phenyl-piperazin-1-yl)-ethyl]-amide] are 0.055 µM and 2.53 µM.
Regarding `COc1c(C(=O)NCCN2CCN(c3ccccc3)CC2)cc(C#N)c2ccccc12` [4-Cyano-1-methoxy-naphthalene-2-carboxylic acid [2-(4-phenyl-piperazin-1-yl)-ethyl]-amide], the values for the Ki in assay [1] and in assay [2] were 0.131 µM and 0.071 µM, respectively.
